{"source": "paper PMC4027965", "about": "(Molecular imaging, 2013)", "assay": "in vivo", "conditions": "female, athymic nude, mouse, liver, iv, 3.7 MBq (100 uCi), total radioactivity"}
{"molecule": "N=C(N)NCCC[C@@H]1NC(=O)[C@H](CSC2CC(=O)N(CCNC(=O)CCCC(=O)Nc3ccc(C4=NNC(c5ccccn5)=C5CCC(OCCF)CCCC45)nc3)C2=O)NC(=O)[C@@H](Cc2ccc(O)cc2)NC(=O)[C@H](CC(=O)O)NC(=O)CNC1=O", "note": "(stereo partly shown) [^18F-TTM-RGD]", "values": [{"measurement": "tissue uptake at 2 h", "value": "2.35 ± 0.24", "unit": "%ID/g"}]}
